Assay results as given in patent publication US11384055B2 (BIOMARIN PHARMACEUTICAL INC., priority 2017, dated 2022).

These molecules were tested against T1, Human GO (Homo sapiens, UniProt Q9UJM8) (assay: GO enzymatic assay (coupled fluorescence/HRP assay, glycolate substrate)). Conditions: not given.
T1 construct: purchased Novus Biologicals NBP1-72412
T1 sequence (Q9UJM8 1-370): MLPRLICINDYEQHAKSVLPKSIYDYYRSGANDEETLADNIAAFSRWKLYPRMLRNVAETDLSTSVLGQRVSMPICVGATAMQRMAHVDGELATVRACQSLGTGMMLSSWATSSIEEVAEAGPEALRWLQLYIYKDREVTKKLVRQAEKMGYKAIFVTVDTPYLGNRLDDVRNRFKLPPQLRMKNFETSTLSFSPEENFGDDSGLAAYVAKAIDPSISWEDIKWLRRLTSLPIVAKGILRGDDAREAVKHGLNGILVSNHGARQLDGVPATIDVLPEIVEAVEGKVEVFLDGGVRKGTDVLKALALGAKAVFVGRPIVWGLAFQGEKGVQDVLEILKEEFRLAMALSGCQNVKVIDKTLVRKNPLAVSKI
Type: biochemical
How it was run: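 Coupled HRP/fluorescence read-out of glycolate oxidation by human GO in 50 mM potassium phosphate buffer (pH 7). Inhibitors added across a concentration range.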

`O=C(O)c1[nH]nnc1-c1ccc(Cl)c(Cl)c1` [Compound 125, 4-(3,4-dichlorophenyl)-1H-1,2,3-triazole-5-carboxylic acid] and `O=C(O)c1[nH]nnc1-c1ccc(-c2ccc(Cl)cc2)c(Cl)c1` [Compound 130, 2,2,2-trifluoroacetate] cannot be ordered by IC50: under 100 nM for the first, under 100 nM for the second.

First: O=C(O)c1[nH]nnc1-c1ccc(-c2ccc(Cl)cc2)cc1 [Compound 126, 2,2,2-trifluoroacetate]
Second: O=C(O)c1[nH]nnc1-c1ccc(-c2ccc(OC(F)(F)F)cc2)cc1 [Compound 128]
The IC50 of the first is lower: under 100 nM for the first, 100 to 1000 nM for the second.

`O=C(O)c1[nH]nnc1-c1ccc2cc(Cl)ccc2c1` [Compound 133, 4-(6-chloronaphthalen-2-yl)-1H-1,2,3-triazole-5-carboxylic acid] and `O=C(O)c1[nH]nnc1-c1cccc(OC(F)(F)F)c1` [Compound 135, 4-(3-(trifluoromethoxy)phenyl)-1H-1,2,3-triazole-5-carboxylic acid] cannot be ordered by IC50: under 100 nM for the first, under 100 nM for the second.

Same assay, conditions: Table 1; read-out: Range (range of IC50 values calculated from the enzymatic assays)

`O=C(O)c1[nH]nnc1OC1CCc2cc(Cl)c(Cl)cc2C1` (stereo not drawn) [Compound 111, 4-((6,7-dichloro-1,2,3,4-tetrahydronaphthalen-2-yl)oxy)-1H-1,2,3-triazole-5-carboxylic acid 2,2,2-trifluoroacetate] and `O=C(O)c1[nH]nnc1OC1CCc2ccccc2C1` (stereo not drawn) [Compound 117, 4-((1,2,3,4-tetrahydronaphthalen-2-yl)oxy)-1H-1,2,3-triazole-5-carboxylic acid 2,2,2-trifluoroacetate] cannot be ordered by IC50: under 100 nM for the first, under 100 nM for the second.

`O=C(OC1CC1)c1[nH]nnc1Oc1ccc(Cl)c(Cl)c1` [Compound 112, cyclopropyl 4-(3,4-dichlorophenoxy)-1H-1,2,3-triazole-5-carboxylate] and `O=C(OC1CC1)c1[nH]nnc1Oc1ccc2c(c1)CCCC2` [Compound 116, cyclopropyl 4-((5,6,7,8-tetrahydronaphthalen-2-yl)oxy)-1H-1,2,3-triazole-5-carboxylate] cannot be ordered by IC50: over 10000 nM for the first, over 10000 nM for the second.

Compared with `O=C(O)c1[nH]nnc1Oc1ccc2cccnc2c1` [Compound 113, 4-(quinolin-7-yloxy)-1H-1,2,3-triazole-5-carboxylic acid 2,2,2-trifluoroacetate], `O=C(O)c1[nH]nnc1Oc1ccc2ncccc2c1` [Compound 120, 4-(quinolin-6-yloxy)-1H-1,2,3-triazole-5-carboxylic acid 2,2,2-trifluoroacetate] is higher in IC50: under 100 nM for the first, 100 to 1000 nM for the second. The first is the more potent here.

`O=C(O)c1[nH]nnc1Oc1cccc(OC(F)(F)F)c1` [Compound 114, 4-(3-(trifluoromethoxy)phenoxy)-1H-1,2,3-triazole-5-carboxylic acid] and `O=C(O)c1[nH]nnc1Oc1ccc(-c2ccc(OC(F)(F)F)cc2)c(Cl)c1` [Compound 119, 4-((2-chloro-4′-(trifluoromethoxy)-[1,1′-biphenyl]-4-yl)oxy)-1H-1,2,3-triazole-5-carboxylic acid] cannot be ordered by IC50: under 100 nM for the first, under 100 nM for the second.

First: O=C(O)c1[nH]nnc1Oc1cnc2ccccc2c1 [Compound 115, 4-(quinolin-3-yloxy)-1H-1,2,3-triazole-5-carboxylic acid 2,2,2-trifluoroacetate]
Second: O=C(O)c1[nH]nnc1Oc1ccc2ccncc2c1 [Compound 118, 4-(isoquinolin-7-yloxy)-1H-1,2,3-triazole-5-carboxylic acid 2,2,2-trifluoroacetate]
The IC50 of the first is higher: 100 to 1000 nM for the first, under 100 nM for the second.

First: O=C(O)c1[nH]nnc1Oc1ccc2cnccc2c1 [Compound 121, 4-(isoquinolin-6-yloxy)-1H-1,2,3-triazole-5-carboxylic acid 2,2,2-trifluoroacetate]
Second: O=C(O)c1[nH]nnc1Oc1ccc(-c2ccc3ncccc3c2)cc1 [Compound 122, 5-(4-(quinolin-6-yl)phenoxy)-1H-1,2,3-triazole-4-carboxylic acid]
The IC50 of the first is higher: 100 to 1000 nM for the first, under 100 nM for the second. The second is the more potent here.

`O=C(O)c1[nH]nnc1-c1csc(-c2ccc(Cl)c(Cl)c2)n1` [Compound 124, 4-(2-(3,4-dichlorophenyl)thiazol-4-yl)-1H-1,2,3-triazole-5-carboxylic acid] and `O=C(O)c1[nH]nnc1-c1cccc(-c2ccc(Cl)c(Cl)c2)c1` [Compound 129, 4-(3′,4′-dichloro-[1,1′-biphenyl]-3-yl)-1H-1,2,3-triazole-5-carboxylic acid] cannot be ordered by IC50: under 100 nM for the first, under 100 nM for the second.

`O=C(O)c1[nH]nnc1-c1ccc(Oc2ccc(Cl)cc2)cc1` [Compound 127, 4-(4-(4-chlorophenoxy)phenyl)-1H-1,2,3-triazole-5-carboxylic acid] and `O=C(O)c1[nH]nnc1-c1cccc(Oc2ccc(Cl)c(Cl)c2)c1` [Compound 131, 4-(3-(3,4-dichlorophenoxy)phenyl)-1H-1,2,3-triazole-5-carboxylic acid 2,2,2-trifluoroacetate] cannot be ordered by IC50: under 100 nM for the first, under 100 nM for the second.

Going from `O=C(O)c1[nH]nnc1-c1ccc2cc(Cl)ccc2n1` [Compound 132, 4-(6-chloroquinolin-2-yl)-1H-1,2,3-triazole-5-carboxylic acid 2,2,2-trifluoroacetate] to `O=C(O)c1[nH]nnc1-c1nccc2ccc(Cl)cc12` [Compound 134, 4-(7-chloroisoquinolin-1-yl)-1H-1,2,3-triazole-5-carboxylic acid], the IC50 rises from under 100 nM to over 10000 nM.

`O=C(O)c1[nH]nnc1-c1ccc(OC(F)(F)F)cc1` [Compound 136, 4-(4-(trifluoromethoxy)phenyl)-1H-1,2,3-triazole-5-carboxylic acid] and `O=C(O)c1[nH]nnc1-c1ccc(-c2ccc(OC(F)(F)F)cc2)c(Cl)c1` [Compound 139, 4-(2-chloro-4′-(trifluoromethoxy)-[1,1′-biphenyl]-4-yl)-1H-1,2,3-triazole-5-carboxylic acid 2,2,2-trifluoroacetate] fall in the same range of IC50: 100 to 1000 nM for the first, 100 to 1000 nM for the second.

`O=C(O)c1[nH]nnc1-c1ccc(OCC2CCCC2)cc1` [Compound 137, 4-(4-(cyclopentylmethoxy)phenyl)-1H-1,2,3-triazole-5-carboxylic acid] and `O=C(O)c1[nH]nnc1-c1ccc(OC2CCCC2)cc1` [Compound 138, 4-(4-(cyclopentyloxy)phenyl)-1H-1,2,3-triazole-5-carboxylic acid] fall in the same range of IC50: 100 to 1000 nM for the first, 100 to 1000 nM for the second.

First: O=C(O)c1[nH]nnc1C1=Cc2ccccc2CC1 [Compound 140, 4-(3,4-dihydronaphthalen-2-yl)-1H-1,2,3-triazole-5-carboxylic acid 2,2,2-trifluoroacetate]
Second: O=C(O)c1[nH]nnc1C1CCc2ccccc2C1 (stereo not drawn) [Compound 141, 4-(1,2,3,4-tetrahydronaphthalen-2-yl)-1H-1,2,3-triazole-5-carboxylic acid 2,2,2-trifluoroacetate]
The IC50 of the first is lower: under 100 nM for the first, 100 to 1000 nM for the second. The first is the more potent here.

`CC(C)N1CCc2cc(-c3nn[nH]c3C(=O)O)ccc2C1` [Compound 143, 4-(2-isopropyl-1,2,3,4-tetrahydroisoquinolin-6-yl)-1H-1,2,3-triazole-5-carboxylic acid 2,2,2-trifluoroacetate] showed an IC50 of over 10000 nM.

Same assay, conditions: Table 6; GO enzymatic assay; read-out: Range (range of IC50 values calculated from the enzymatic assays)

`O=C(O)c1[nH]nnc1O[C@@H]1CCc2cc(Cl)c(Cl)cc2C1` [Compound 111-1, (R)-4-((6,7-dichloro-1,2,3,4-tetrahydronaphthalen-2-yl)oxy)-1H-1,2,3-triazole-5-carboxylic acid] and `O=C(O)c1[nH]nnc1O[C@H]1CCc2cc(Cl)c(Cl)cc2C1` [Compound 111-2, (S)-4-((6,7-dichloro-1,2,3,4-tetrahydronaphthalen-2-yl)oxy)-1H-1,2,3-triazole-5-carboxylic acid] cannot be ordered by IC50: under 100 nM for the first, under 100 nM for the second.
